Key:
[1] = Solubility and BCS classification of compound A; assay type: physicochemical
[2] = from Literature 1; cited from earlier work

Compound: COC(=O)[C@H](c1ccccc1Cl)N1CC[C@@H]2SC(=O)C=C2C1 [Compound A, methyl(S)-2-(2-chlorophenyl)-2-((S)-2-oxo-2,6,7,7a-tetrahydrothiophene [3,2-c]pyridin-5 (4H)-yl)acetate]
- BCS (Biopharmaceutics Classification System) class [1]: low solubility and high permeability
- solubility in acetone ([1]; acetone): very slightly soluble
- solubility in ethanol ([1]; ethanol): slightly soluble
- solubility in methanol ([1]; methanol): hardly soluble
- solubility in toluene ([1]; toluene): almost insoluble
- solubility in water ([1]; water): very slightly soluble

Compound: COC(=O)[C@H](c1ccccc1Cl)N1CCc2sccc2C1 [clopidogrel]
- share of clopidogrel metabolized to compound A after oral intake [2]: 15%

From patent publication US20260007641A1, “PHARMACEUTICAL COMPOSITION FOR TREATING AND RESISTING BLOOD COAGULATION AND USE THEREOF” (CHENGDU SHIBEIKANG BIOMEDICAL TECHNOLOGY CO., LTD., priority 2022, published 2026)
